This note sets out measurements from patent US8653305B2, “Compound having S1P receptor binding potency and use thereof” (Ono Pharmaceutical Co., Ltd., priority 2004, dated 2014).

pEC50, pIC50: −log10 of the molar value.

Test [1] deals with T1, Human EDG-1 (Homo sapiens, UniProt P21453).
T1 construct: expressed in transfected cells; host or cells: CHO cells
The test is described as follows: Agonistic activity against EDG by monitoring changes in intracellular calcium ion [Ca^2+]i concentration. Conditions: Human EDG-1 overexpressing CHO cells; Fura2-AM; control 100 nM S1P; read-out: EC50 of agonistic activity against EDG-1 (increase ratio of intracellular calcium ion concentration). The test is classed as cell-based. As to the method:
Evaluation of an Agonistic Activity Against EDG of the Compound of the Present Invention by Monitoring Changes in Intracellular Calcium Ion [Ca^2+]i Concentration
Human EDG-1, EDG-3, EDG-5 or EDG-8 gene overexpressing CHO cells were cultured in Ham's F12 medium (manufactured by GIBCO BRL) containing 10% FBS (fetal bovine serum), penicillin/streptomycin and blasticidin (5 μg/ml). The cultured cells were incubated in a 5 μM Fura2-AM solution (Ham's F12 medium containing 10% of FBS, 20 mM HEPES buffer (pH7.4), and 2.5 mM probenecid) at 37° C. for 60 minutes. After washing once with Hanks solution containing 20 mM HEPES buffer (pH7.4), and 2.5 mM probenecid, the plate was soaked in the same solution until assay. Then, the plate was set on a fluorescent drug screening system (FDSS 6000; Hamamatsu Photonics) and the intracellular calcium ion concentration was measured without stimulation for 30 seconds. A test compound (final concentration: 1 nM to 10 μM, dimethylsulfoxide (DMSO) solution) was added and S1P (final concentration: 100 nM) was added 5 minutes thereafter. Then, the increase in the intracellular calcium ion concentration was measured before and after the addition of S1P at intervals of 3 seconds (excitation wavelength: 340 nm and 380 nm, fluorescence wavelength: 500 nm). […]

In test [2] the target is T2, EDG-6 (Homo sapiens, UniProt O95977).
T2 construct: expressed in transfected cells; host or cells: Chinese Hamster Ovary (CHO) cells, membrane fraction
T2 sequence (O95977 1-384): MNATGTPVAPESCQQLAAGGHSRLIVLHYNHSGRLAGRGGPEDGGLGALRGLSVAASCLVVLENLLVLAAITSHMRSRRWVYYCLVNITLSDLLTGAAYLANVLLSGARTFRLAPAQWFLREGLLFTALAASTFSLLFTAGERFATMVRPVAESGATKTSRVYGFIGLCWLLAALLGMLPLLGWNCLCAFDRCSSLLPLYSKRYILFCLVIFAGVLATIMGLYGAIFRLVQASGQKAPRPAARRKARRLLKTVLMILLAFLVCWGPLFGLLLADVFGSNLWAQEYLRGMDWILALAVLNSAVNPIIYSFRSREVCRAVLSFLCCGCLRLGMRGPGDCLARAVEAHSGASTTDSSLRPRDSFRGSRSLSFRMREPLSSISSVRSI
The test is described as follows: Inhibitory activity on binding of [^3H]-PhS1P to EDG-6. Conditions: cell membrane fraction of EDG-6-overexpressing CHO cell; 10 nmol/L [^3H]-PhS1P solution; read-out: IC50 of inhibition of binding of [^3H]-PhS1P to EDG-6. As to the method: Measurement of Inhibitory Activity of the Compound of the Present Invention on Binding of [^3H]-PhS1P to EDG-6
By using cell membrane fraction of an EDG-6-overexpressing Chinese Hamster Ovary (CHO) cell and 1 mg protein/mL of the membrane fraction, reaction was carried out in a 96-well plate. Into each well, 80 μL of a vehicle (DMSO) solution diluted with 2× binding buffer (100 mmol/L Tris pH 7.5, 200 mM NaCl, 30 mM NaF, 1% BSA) or a ligand solution having a twice higher concentration and 40 μL of 10 nmol/L [^3H]-PhS1P (5,5,6,6,-[…] phytosphingosine 1-phosphate: This was prepared in the following manner. A compound (anti-7-tert-butyl (4S)-4-[(1S,2R)-1-(benzyloxy)-2-hydroxyhexadec-3-yn-1-yl]-2,2-dimethyl-1,3-oxazolizine-3-carboxylate) prepared in accordance with a method reported in a document (Tetrahedron Lett., 38(34), 6027-6030 (1997)) was reacted with benzyl bromide in tetrahydrofuran in the presence of potassium hexamethyldisilylamide to thereby protect the hydroxy group of the compound. Then, it was treated in hydrogen chloride/methanol solution to remove an acetonide group. The compound thus obtained was reacted with N,N-diethyl-1,5-dihydro-2,4,3-benzodioxaphosphepin-3-amine in dichloromethane in the presence of tetrazole and then oxidized with m-chloroperbenzoic acid. Then, it was reacted in the presence of ASCA-2 catalyst (manufactured by NE Chemcat, 4.5% palladium-0.5% platinum catalyst carried on active carbon, see, Fine Chemical, Oct. 1, 2002, pages 5 to 14) in methanol under a tritium atmosphere. The obtained compound was treated with a 4 N hydrogen chloride/1,4-dioxane solution in dichloromethane to thereby obtain the desired compound) were added. Further, 40 μl of the membrane fraction solution was added and reacted at room temperature for 60 minutes. […] Then, 50 μl/well of Micro Scint 20 was added and the plate was covered with Top Seal-P. Then the radioactivity was measured with Top Count (Perkin Elmer).

T1 sequence (P21453 whole entry): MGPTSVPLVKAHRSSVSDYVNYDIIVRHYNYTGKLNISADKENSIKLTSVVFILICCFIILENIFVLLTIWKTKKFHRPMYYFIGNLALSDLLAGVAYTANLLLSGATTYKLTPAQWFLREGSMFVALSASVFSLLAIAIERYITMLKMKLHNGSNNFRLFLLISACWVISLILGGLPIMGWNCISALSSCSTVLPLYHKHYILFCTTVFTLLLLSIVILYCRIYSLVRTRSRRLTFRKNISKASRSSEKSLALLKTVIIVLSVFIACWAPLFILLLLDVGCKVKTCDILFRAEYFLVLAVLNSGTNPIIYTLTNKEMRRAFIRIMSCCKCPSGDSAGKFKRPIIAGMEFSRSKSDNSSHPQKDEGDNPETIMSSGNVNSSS

In the case of `c1ccc(CCCCOc2ccc3cc(CN4CCCCC4)ccc3c2)cc1` [Example 5, 1-{[6-(4-phenylbutoxy)-2-naphthyl]methyl}piperidine], the pEC50 in test [1] is 5.11.
Still for that read-out and setting: to `O=C(NS(=O)(=O)c1ccccc1)C1CN(Cc2ccc3cc(OCCCc4ccccc4)ccc3c2)C1` [Example 6] belongs 6.60.
Usually pIC50 stands for the IC50 on a negative log10 scale, so that one unit is a factor of ten. On to `CCNCC1=C(C)c2ccc(OCC(C)Cc3ccc(F)cc3)cc2CC1` (centres unmarked) [Example 27, N-({6-[3-(4-fluorophenyl)-2-methylpropoxy]-1-methyl-3,4-dihydro-2-naphthalenyl}methyl)ethanamine], for which the pIC50 in test [2] is 7.59.
On the same count and under the same terms, with `COc1cc(CC(C)C)ccc1COc1ccc2c(c1)CCC(CN1CC(CO)C1)=C2C` [Example 37-1, [1-({6-[(4-isobutyl-2-methoxybenzyl)oxy]-1-methyl-3,4-dihydro-2-naphthalenyl}methyl)-3-azetidinyl]methanol] the figure was 7.01; with `COc1cc(CC(C)C)ccc1COc1ccc2c(c1)CCC(CN1CCN(c3ccccn3)CC1)=C2C` [Example 66-24, 1-({6-[(4-isobutyl-2-methoxybenzyl)oxy]-1-methyl-3,4-dihydro-2-naphthalenyl}methyl)-4-(2-pyridinyl)piperazine], 7.09.
